Measured values published in ChEMBL document CHEMBL5329193, “Targeting Mycobacterium tuberculosis iron-scavenging tools: a recent update on siderophores inhibitors” (RSC Med Chem, 2023).
≈ marks a conversion by molar mass, not a printed value.

Key:
[1] = system: Mycobacterium tuberculosis; assay: Antimycobacterial activity against Mycobacterium tuberculosis H37Ra assessed as reduction in bacterial growth by MABA method; assay type: functional
[2] = system: Mycobacterium tuberculosis; assay: Antimycobacterial activity against Mycobacterium tuberculosis assessed as reduction in bacterial growth measured after 7 days by fluorescence microplate analysis; assay type: functional, organism-based; conditions: 168 h; for MIC: time 7 day
[3] = system: Mycobacterium tuberculosis; assay: Antimycobacterial activity against Mycobacterium tuberculosis H37Rv assessed as reduction in bacterial growth incubated for 5 days by resazurin dye based fluorescence analysis; assay type: functional; conditions: 120 h, time 5 day
[4] = system: Mycobacterium tuberculosis; assay: Antimycobacterial activity against intracellular Mycobacterium tuberculosis assessed as reduction in cell growth; assay type: functional
[5] = Cytotoxicity against mouse RAW264.7 cells assessed as reduction in cell viability incubated for 48 hrs by MTT assay; assay type: toxicity, cell-based
[6] = system: Mycobacterium tuberculosis; assay: Antimycobacterial activity against Mycobacterium tuberculosis assessed as reduction in bacterial cell growth measured after 24 hrs; assay type: functional, organism-based
[7] = system: Mycobacterium tuberculosis; assay: Antimycobacterial activity against Mycobacterium tuberculosis assessed as inhibition of bacterial growth incubated for 7 days by broth dilution method; assay type: functional; conditions: 168 h, time 7 day
[8] = system: Mycobacterium tuberculosis; assay: Antibacterial activity against Mycobacterium tuberculosis H37Rv assessed as reduction in bacterial growth; assay type: functional
[9] = Binding affinity to Mycobacterium tuberculosis salicylate synthase using chorismic acid as substrate in presence of MgCl2 by fluorimetric assay
[10] = system: Mycobacterium tuberculosis; assay: Antimycobacterial activity against Mycobacterium tuberculosis H37Rv assessed as inhibition of bacterial growth incubated for 5 days by broth microdilution method; assay type: functional; conditions: 120 h, time 5 day
[11] = system: Mycobacterium tuberculosis; assay: Antibacterial activity against Mycobacterium tuberculosis H37Rv assessed as reduction in bacterial growth incubated for 7 to 14 days by broth microdilution method; assay type: functional; conditions: time 7-14 day
[12] = system: Mycobacterium tuberculosis; assay: Antimicrobial activity against Mycobacterium tuberculosis H37Rv assessed as reduction in bacterial growth by Alamar Blue fluorescence assay; assay type: functional
[13] = system: Mycobacterium tuberculosis; assay: Antibacterial activity against Mycobacterium tuberculosis H37Rv assessed as reduction in bacterial growth incubated for 7 to 14 days; assay type: functional; conditions: time 7-14 day
[14] = Inhibition of Mycobacterium tuberculosis IdeR assessed as reduction in IdeR DNA binding activity by electrophoretic mobility shift assay
[15] = target: T1, Enoyl-[acyl-carrier-protein] reductase [NADH] (Mycobacterium tuberculosis, UniProt P9WGR1); assay: Binding affinity to Mycobacterium tuberculosis InhA assessed as inhibition constant
T1 sequence (P9WGR1 whole entry): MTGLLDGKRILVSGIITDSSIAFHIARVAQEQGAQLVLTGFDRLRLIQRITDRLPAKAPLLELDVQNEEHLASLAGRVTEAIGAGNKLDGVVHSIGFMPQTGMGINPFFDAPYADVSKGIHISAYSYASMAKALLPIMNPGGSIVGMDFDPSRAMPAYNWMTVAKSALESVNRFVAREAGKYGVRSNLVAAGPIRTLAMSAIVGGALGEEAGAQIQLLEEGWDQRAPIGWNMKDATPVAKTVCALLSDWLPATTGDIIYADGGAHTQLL

[16] = system: Mycobacterium tuberculosis; assay: Antitubercular activity against Mycobacterium tuberculosis H37Rv assessed as reduction in microbial growth by broth dilution method; assay type: functional, organism-based
[17] = system: Mycobacterium tuberculosis; assay: Antimycobacterial activity against Mycobacterium tuberculosis H37Rv by green fluorescent protein microplate assay; assay type: functional
[18] = system: Mycobacterium tuberculosis; assay: Antitubercular activity against Mycobacterium tuberculosis XDR-FJ05195 assessed as inhibition of bacterial growth incubated for 14 days by microplate alamar blue assay; assay type: functional; conditions: XDR-FJ05195, 336 h, time 14 day
[19] = system: Mycobacterium tuberculosis; assay: Antitubercular activity against Mycobacterium tuberculosis H37Rv ATCC 25618 assessed as reduction in bacterial growth; assay type: functional
[20] = Inhibition of recombinant Mycobacterium tuberculosis salicylate synthase by fluorimetric assay
[21] = system: Mycobacterium tuberculosis; assay: Antimycobacterial activity against Mycobacterium tuberculosis H37Rv assessed as reduction in bacterial growth after 7 days by resazurin based fluorescence assay; assay type: functional, organism-based; conditions: 168 h
[22] = system: Mycobacterium tuberculosis; assay: Antimycobacterial activity against Mycobacterium tuberculosis H37Rv assessed as inhibition of bacterial growth incubated for 7 days by broth dilution method; assay type: functional; conditions: 168 h, time 7 day
[23] = system: Mycolicibacterium smegmatis; assay: Antimycobacterial activity against Mycobacterium smegmatis ATCC 607 assessed as bacterial growth inhibition incubated for 48 hrs by resazurin dye based assay; assay type: functional
[24] = system: Mycolicibacterium smegmatis; assay: Antimycobacterial activity against Mycobacterium smegmatis assessed as bacterial growth inhibition incubated for 48 hrs by resazurin dye based assay; assay type: functional
[25] = target: T2, Trehalose monomycolate exporter MmpL3 (Mycolicibacterium smegmatis, UniProt A0QP27); assay: Binding affinity to Mycobacterium smegmatis MmpL3 by surface plasmon resonance assay
T2 sequence (A0QP27 whole entry): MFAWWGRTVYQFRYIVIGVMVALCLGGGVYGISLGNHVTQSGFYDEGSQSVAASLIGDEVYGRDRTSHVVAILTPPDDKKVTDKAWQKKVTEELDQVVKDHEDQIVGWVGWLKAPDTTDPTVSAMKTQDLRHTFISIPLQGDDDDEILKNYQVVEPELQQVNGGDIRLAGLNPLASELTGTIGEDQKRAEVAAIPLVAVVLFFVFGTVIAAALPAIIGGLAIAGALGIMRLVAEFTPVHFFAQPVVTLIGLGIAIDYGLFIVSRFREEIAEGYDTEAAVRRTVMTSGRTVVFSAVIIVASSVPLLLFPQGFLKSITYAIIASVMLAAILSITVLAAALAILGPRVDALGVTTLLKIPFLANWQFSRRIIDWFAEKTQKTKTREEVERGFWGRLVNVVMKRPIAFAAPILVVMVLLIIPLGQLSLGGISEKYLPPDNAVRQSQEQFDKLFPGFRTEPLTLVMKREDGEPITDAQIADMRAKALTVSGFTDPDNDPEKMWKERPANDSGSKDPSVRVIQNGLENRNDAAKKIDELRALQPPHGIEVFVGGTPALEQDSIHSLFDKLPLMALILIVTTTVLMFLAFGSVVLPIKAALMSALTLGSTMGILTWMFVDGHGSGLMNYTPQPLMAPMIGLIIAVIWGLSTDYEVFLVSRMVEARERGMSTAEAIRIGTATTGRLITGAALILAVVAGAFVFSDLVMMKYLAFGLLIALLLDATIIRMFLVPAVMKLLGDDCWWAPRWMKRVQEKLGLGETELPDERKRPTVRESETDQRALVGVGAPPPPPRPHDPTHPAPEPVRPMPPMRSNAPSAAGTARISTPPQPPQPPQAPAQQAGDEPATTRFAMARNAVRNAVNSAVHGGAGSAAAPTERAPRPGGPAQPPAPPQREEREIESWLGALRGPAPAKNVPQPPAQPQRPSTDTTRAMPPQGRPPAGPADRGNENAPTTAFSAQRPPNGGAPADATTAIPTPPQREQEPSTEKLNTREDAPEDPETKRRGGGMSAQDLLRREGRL

[26] = target: T3, Salicyl-AMP ligase / salicyl-S-ArCP synthetase (Mycobacterium tuberculosis, UniProt P71716); assay: Binding affinity to Mycobacterium tuberculosis H37Rv ATCC 25618 MbtA assessed as apparent binding constant; conditions: read-out: Ki(app)
T3 sequence (P71716 whole entry): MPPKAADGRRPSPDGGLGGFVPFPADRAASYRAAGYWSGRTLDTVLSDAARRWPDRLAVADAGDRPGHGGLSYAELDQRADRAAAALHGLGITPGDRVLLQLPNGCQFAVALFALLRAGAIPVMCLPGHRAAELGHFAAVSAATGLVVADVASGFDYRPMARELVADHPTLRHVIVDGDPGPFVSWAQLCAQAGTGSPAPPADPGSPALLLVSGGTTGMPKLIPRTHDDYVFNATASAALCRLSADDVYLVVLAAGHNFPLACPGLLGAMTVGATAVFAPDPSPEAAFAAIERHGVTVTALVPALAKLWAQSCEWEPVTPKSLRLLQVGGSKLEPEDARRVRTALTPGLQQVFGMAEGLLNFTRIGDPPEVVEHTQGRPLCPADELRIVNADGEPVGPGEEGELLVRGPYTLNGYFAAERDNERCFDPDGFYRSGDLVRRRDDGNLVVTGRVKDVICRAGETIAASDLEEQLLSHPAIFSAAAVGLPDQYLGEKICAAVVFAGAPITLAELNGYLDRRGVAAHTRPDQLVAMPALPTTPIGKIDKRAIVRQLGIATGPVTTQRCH

C[N+](C)(CCCN1c2ccccc2Sc2ccc(Cl)cc21)Cc1ccccc1
MIC [1]: 1.1 µg/mL

Cc1ccc(-n2sc3ccccc3c2=O)cc1
IC50 [2]: 1.59 µM

O=[N+]([O-])c1cc(C(F)(F)F)ccc1NCCc1c[nH]c2ccc(O)cc12
MIC90 [3]: 13 µM (≈ 4.75 µg/mL)
IC90 [4]: 9.3 µM
IC50 at 48 h [5]: 29 µM

CCN(CC)S(=O)(=O)c1cccc(-n2sc3ccccc3c2=O)c1
IC50 [6]: 0.96 µM
IC50 [2]: 0.86 µM

O=C(O)c1ccc(-c2ccc([N+](=O)[O-])cc2Cl)o1
MIC [7]: 21.1 µM (≈ 5.65 µg/mL)

Nc1ncnc2c1ncn2[C@@H]1O[C@H](CNS(=O)(=O)NC(=O)c2ccccc2O)[C@@H](O)[C@H]1F
MIC [8]: 0.19 µM (≈ 0.0888 µg/mL)
Ki [9]: 0.0017 µM

Nc1ncnc2c1ncn2[C@@H]1O[C@H](COS(=O)(=O)NC(=O)c2ccccc2O)[C@@H](O)[C@H]1O
MIC [10]: 0.5 µg/mL (≈ 1.07 µM)
MIC [11]: 0.39 µM (≈ 0.182 µg/mL)
MIC [12]: 0.39 µg/mL (≈ 0.836 µM)
MIC [13]: 1.56 µM (≈ 0.728 µg/mL)

O=C(O)C1(Cc2ccc(O)c(O)c2)NCCS1 (stereo not drawn)
IC50 [14]: 2.4 µg/mL

N#Cc1cc(-c2ccc(C(=O)O)o2)cc(C(F)(F)F)c1
Ki [15]: 9 µM
IC50 [16]: 15 µM

CCCCCCCCCCCCCCCCC(=O)N(O)CCCC[C@H](NC(=O)[C@@H]1COC(c2ccccc2O)=N1)C(=O)NC[C@H](CC(=O)CCCO[C@H]1O[C@@H]2O[C@@]3(C)CC[C@H]4[C@H](C)CC[C@@H]([C@H]1C)[C@@]24OO3)C(=O)N[C@H]1CCCCN(O)C1=O
MIC [17]: 0.39 µg/mL (≈ 0.334 µM)
MIC [18]: 0.078 µg/mL (≈ 0.0668 µM)

O=S(=O)(O)c1ccc(O)c(NNc2c(O)ccc3ccccc23)c1
IC50 [14]: 1 µg/mL

Nc1ncnc2c1ncn2[C@@H]1O[C@H](CNS(=O)(=O)NC(=O)c2ccccc2O)[C@@H](O)[C@@H]1F
MIC [8]: 0.15 µM (≈ 0.0701 µg/mL)
Ki [9]: 0.0018 µM

Nc1ncnc2c1ncn2[C@@H]1O[C@H](CNS(=O)(=O)NC(=O)c2ccccc2O)[C@H](F)[C@H]1F
Ki [9]: 0.0014 µM
MIC [2]: 0.78 µM (≈ 0.366 µg/mL)

Cc1ccc(S(=O)(=O)C2CC(=O)N(c3ccc(F)c(Cl)c3)C2=O)cc1 (stereo not drawn)
MIC90 [19]: 17.5 µg/mL (≈ 45.8 µM)
IC50 [14]: 24.3 µg/mL

O=C(O)c1ccc(-c2ccc(C(F)(F)F)cc2C(F)(F)F)o1
Ki [20]: 8.8 µM

N#Cc1cc(C(F)(F)F)ccc1-c1ccc(C(=O)O)o1
IC50 [21]: 18.5 µM
Ki [20]: 5.7 µM

COC(=O)C(=Cc1ccccc1C(F)(F)F)Oc1cccc(C(=O)OC)c1O
MIC [22]: 25 µM (≈ 9.91 µg/mL)
Ki [9]: 125 µM

Nc1ncnc2c1ncn2[C@@H]1O[C@H](CNS(=O)(=O)NC(=O)c2ccccc2O)[C@H](F)[C@H]1O
MIC [8]: 0.6 µM (≈ 0.28 µg/mL)
Ki [9]: 0.0006 µM

Nc1ncnc2c1ncn2[C@@H]1O[C@H](CNS(=O)(=O)NC(=O)c2ccccc2O)[C@@H](F)[C@H]1F
Ki [9]: 0.139 µM
MIC [2]: 37 µM (≈ 17.4 µg/mL)

O=c1cc(CC2CCCCC2)[nH]c2c(-c3ccc(Cl)cc3)cnn12
MIC [23]: 2.5 µM (≈ 0.855 µg/mL)

COc1ncnc2c1ncn2[C@@H]1O[C@H](CNS(=O)(=O)NC(=O)c2ccccc2O)[C@@H](O)[C@H]1O
MIC [24]: 5.3 µg/mL (≈ 11 µM)
Ki [25]: 0.277 µM

C#CCCC(=O)Nc1ccc(C(=O)c2ccc(Nc3nc(N)c4ncn([C@@H]5O[C@H](COS(=O)(=O)NC(=O)c6ccccc6O)[C@@H](O)[C@H]5O)c4n3)cc2)cc1
Ki [26]: 0.00094 µM
MIC [11]: 3 µM (≈ 2.27 µg/mL)
MIC [13]: 50 µM (≈ 37.8 µg/mL)

CC=C(Oc1cccc(C(=O)O)c1O)C(=O)O
MIC [22]: > 1 µM
Ki [9]: 11 µM

N#Cc1cc([N+](=O)[O-])ccc1-c1ccc(C(=O)O)o1
IC50 [21]: 24.4 µM
Ki [20]: 5 µM

CC1CC(=O)c2c(cc(O)cc2C(=O)O)O1 (stereo not drawn)
MIC [7]: 55.8 µM (≈ 12.4 µg/mL)

CN(C[C@H]1O[C@@H](n2cnc3c(N)ncnc32)[C@H](O)[C@@H]1O)S(=O)(=O)NC(=O)c1ccccc1O
MIC [24]: 0.8 µg/mL (≈ 1.67 µM)
Ki [25]: 0.159 µM
